Data reported in patent US11992498B2, “Substituted N9-adenine derivatives, pharmaceutical compositions containing same and use thereof” (priority 2018, dated 2024).

Key:
Format in all cases: cell-based, mouse
AMPK = AMPK activation assay (ELISA ratio phosphorylated α-AMPK:total α-AMPK in C2C12 cells); details: concentrations as low as 30 nanomolar, 4 hours of incubation
Method: C2C12 cells from the mouse muscle myoblastoma cell line (from Sigma-Aldrich) were seeded at a cell density of 10,000 cells per well in a 96-well plate in 200 μl of growth medium (high glucose DMEM, 10% foetal bovine serum […], penicillin and […]). The cells were allowed to grow until confluence and on the day of the assay they were incubated with the compound of interest in 100 μl of growth medium at 37° C. and 5% CO2 in an incubator for between 1 and 24 hours. All conditions were tested in quadruplicate. The compounds were administered dissolved in sterile anhydrous dimethyl sulphoxide at different concentrations. As a positive control for AMPK activation, an adenosine monophosphate (AMP) solution with a final concentration of […] was used. After the corresponding times, the medium was removed and the cells were carefully washed three times with PBS at room temperature and the Abcam Elisa kit was used to quantify the ratio of phosphorylated α-AMPK:total α-AMPK. The manufacturer's instructions were followed and the signal was quantified using a Licor Odissey® scanner.
The compounds selected as AMPK activators according to the criteria described above are used in glucose consumption tests and MTT cell viability tests.

C2C12 cells [1] = experiment: MTT cell viability/proliferation assay in C2C12 myotubes
Method: MTT Cell Viability/Proliferation Assay
The MTT redox assay is based on the metabolic reduction of bromide from 3-(4,5-dimethylthiazol-2-yl)-2,5-diphenyltetrazole (MTT) that is produced by the mitochondrial enzyme succinate-dehydrogenase, which colours the formazan dye blue, allowing to determine the mitochondrial functionality of the treated cells.
C2C12 cells were seeded at a density of 10,000 cells per well in a white 96-well plate compatible with the use of a luminometer. Cells were grown for 5 days in 200 μl/well of growth medium (high glucose DMEM, 10% FBS, penicillin and […]), with the medium being replaced every two days. Subsequently, the medium was replaced by a differentiation medium (low glucose DMEM, 2% NHS, penicillin and […]) and the cells were allowed to differentiate in myotubes for three days, the medium being changed every day. In all processes, cells were incubated at 37° C. and 5% CO2 in a cell incubator. The compound N9-(3-diethylphosphonyl)phenyl-adenine was incubated for 24 and 48 hours in low glucose DMEM without serum. […] After incubation, 10 μl of the MTT reagent (Abcam) was added to each well and, after 30 min, 45 min and 60 min of incubation, the absorbance at 490 nm was measured in a photometer with a Biotek TX plate reader. The reading is an indirect measure of the NAD(P)H enzyme dependent on cellular oxidase reductases. […]

C2C12 cells [2] = experiment: Glucose consumption test (2-deoxyglucose uptake, luminometric) in C2C12 myotubes; details: one hour incubation
Method: C2C12 cells of the mouse muscle myoblastoma cell line (from Sigma-Aldrich) were seeded at a cell density of 10,000 cells per well in a white 96-well plate compatible with the use of a luminometer. Cells were grown for 5 days in 200 μl/well of growth medium (high glucose DMEM, 10% foetal bovine serum […], penicillin and […]) in an incubator at 37° C. and 5% CO2. The medium was changed every two days. The medium was then replaced with a differentiation medium (low glucose DMEM, 2% […], penicillin and […]), allowing the cells to differentiate into myotubes for three days. The medium was changed every day. One day prior to testing, cells were serum starved (low glucose DMEM, penicillin and […]). The medium was then replaced by a DMEM medium without glucose and the compound N9-(3-diethylphosphonyl)phenyl-adenine was incubated for one hour at different concentrations, replicating the conditions in quadruplicate. The positive control consisted of 100 nanomolar human insulin solution (from Sigma). A Promega glucose consumption kit was used following the manufacturer's instructions. […]
Total luminescence was measured on a Biotek MX luminometric plate reader. […]

In the case of N9-(3-diethylphosphonyl)phenyl-adenine, the “AMPK activity as % of that obtained with the AMP positive control” value (AMPK) is reported as “greater than 500%”, the “AMPK activity compared with the AMP positive control” value (AMPK) is reported as “higher AMPK activity than the AMP positive control” and the “Luminosity as % of the control (MTT)” value (C2C12 cells [1]; 30 nanomolar, 48 hours incubation) is reported as 157±5%. The “MTT signal compared to controls” value (C2C12 cells [1]; nanomolar concentrations) was “significantly higher signal compared to controls”, the “Luminosity as % of the control (glucose consumption)” value (C2C12 cells [2]; 30 nanomolar, C2C12 myotubes) was 125±9% and the “glucose consumption activity compared with insulin controls” value (C2C12 cells [2]; concentrations as low as 30 nanomolar, control 100 nanomolar human insulin) was “analogous to or greater than that of insulin controls”.
